Data set [1] can be described thus: Pharmacokinetics of clopidogrel and its metabolites with and without ritonavir. It counts as in vivo, human. Conditions: for C max / AUC0‐4h / AUC0‐∞ / t ½ / t max: after clopidogrel 300 mg oral; for C max / AUC0‐4h / AUC0‐∞ / t ½ / Clopidogrel active metabolite: clopidogrel AUC0‐∞ ratio: geometric mean (geometric CV); for t max: median (range).
For data set [2] the following is noted: cited from earlier work.
[3] abbreviates: clopidogrel and ritonavir phase.

Each structure is given as a SMILES string.

Regarding `COC(=O)[C@H](c1ccccc1Cl)N1CC[C@@H](S)/C(=C\C(=O)O)C1` [Clopidogrel active metabolite], the C max in data set [1] (clopidogrel and ritonavir phase (ritonavir 100 mg twice daily)) is on record as 6.77 (140) ng/mL. Further, in data set [1] (setting [3]), the “AUC0‐4h” value was 9.16 (150) ng·h/mL, the “AUC0‐∞” value is reported as 14.9 (170) ng·h/mL, the “t ½” value is on record as 0.89 (90) h and the t max is given as 0.92 (0.92–1.5) h. In addition, in data set [1] (setting [3]), the “Clopidogrel active metabolite: clopidogrel AUC0‐∞ ratio” value is recorded as 1.83 (200). Moreover, in data set [1] (clopidogrel phase), the “AUC0‐4h” value is listed as 18.7 (77) ng·h/mL, the “AUC0‐∞” value is 19.3 (79) ng·h/mL, the C max is 13.0 (72) ng/mL and the “t ½” value is recorded as 1.05 (58) h. In addition, in data set [1] (clopidogrel phase), the t max is listed as 0.92 (0.92–1.5) h and the “Clopidogrel active metabolite: clopidogrel AUC0‐∞ ratio” value is 1.79 (110). Besides, in data set [1] (geometric mean), the “AUC0‐4h in clopidogrel–ritonavir phase as % of that in the clopidogrel phase” value was 49% and the “C max in clopidogrel–ritonavir phase as % of that in the clopidogrel phase” value came out at 52%. Besides, in data set [1] (geometric mean ratio (90% CI)), the “AUC0‐4h, clopidogrel and ritonavir phase to clopidogrel phase ratio” value was 0.49 (0.39–0.61); P = 0.0001; the “AUC0‐∞, clopidogrel and ritonavir phase to clopidogrel phase ratio” value is recorded as 0.77 (0.59–1.00); the “C max, clopidogrel and ritonavir phase to clopidogrel phase ratio” value is recorded as 0.52 (0.41–0.65); P = 0.0003; the “Clopidogrel active metabolite: clopidogrel AUC0‐∞ ratio, clopidogrel and ritonavir phase to clopidogrel phase ratio” value is on record as 1.03 (0.53–1.97). Besides, in data set [1] (geometric mean ratio (90% CI)), the “t ½, clopidogrel and ritonavir phase to clopidogrel phase ratio” value is 0.85 (0.66–1.08). The “decrease of AUC by ketoconazole” value in data set [2] is recorded as 22–29%.

These data come from article PMC6585621 (Clinical Pharmacology and Therapeutics, 2018).
